Values of other authors as cited in patent US11535670B2, “Combination therapies of HDAC inhibitors and PD-L1 inhibitors” (HUYABIO International, LLC, priority 2016, dated 2022).

Experiments:
Settings in all cases: cited from earlier work
HDAC 3 = HDAC 3 (Homo sapiens, UniProt O15379)
HDAC 10 = target: T1, HDAC 10 (Homo sapiens, UniProt Q969S8)
T1 sequence (Q969S8 1-669): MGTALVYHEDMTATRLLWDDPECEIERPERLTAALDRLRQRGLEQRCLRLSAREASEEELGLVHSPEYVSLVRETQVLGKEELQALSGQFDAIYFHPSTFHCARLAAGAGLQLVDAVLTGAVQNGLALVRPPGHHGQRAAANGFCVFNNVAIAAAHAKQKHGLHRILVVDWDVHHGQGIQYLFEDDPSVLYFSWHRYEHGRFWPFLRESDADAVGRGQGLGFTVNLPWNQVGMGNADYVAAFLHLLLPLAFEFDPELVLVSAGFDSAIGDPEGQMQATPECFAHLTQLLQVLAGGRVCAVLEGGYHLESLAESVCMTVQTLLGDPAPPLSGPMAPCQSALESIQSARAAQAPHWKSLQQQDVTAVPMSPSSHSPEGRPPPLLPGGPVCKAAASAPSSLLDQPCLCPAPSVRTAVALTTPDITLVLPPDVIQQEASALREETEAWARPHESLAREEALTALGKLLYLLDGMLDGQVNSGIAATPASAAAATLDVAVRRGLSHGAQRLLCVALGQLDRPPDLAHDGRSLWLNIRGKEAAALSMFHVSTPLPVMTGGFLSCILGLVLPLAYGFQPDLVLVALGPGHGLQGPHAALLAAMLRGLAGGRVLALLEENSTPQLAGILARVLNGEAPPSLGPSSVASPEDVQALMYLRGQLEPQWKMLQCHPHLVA

HDAC 8 = target: T2, HDAC 8 (Homo sapiens, UniProt Q9BY41)
T2 sequence (Q9BY41 1-377): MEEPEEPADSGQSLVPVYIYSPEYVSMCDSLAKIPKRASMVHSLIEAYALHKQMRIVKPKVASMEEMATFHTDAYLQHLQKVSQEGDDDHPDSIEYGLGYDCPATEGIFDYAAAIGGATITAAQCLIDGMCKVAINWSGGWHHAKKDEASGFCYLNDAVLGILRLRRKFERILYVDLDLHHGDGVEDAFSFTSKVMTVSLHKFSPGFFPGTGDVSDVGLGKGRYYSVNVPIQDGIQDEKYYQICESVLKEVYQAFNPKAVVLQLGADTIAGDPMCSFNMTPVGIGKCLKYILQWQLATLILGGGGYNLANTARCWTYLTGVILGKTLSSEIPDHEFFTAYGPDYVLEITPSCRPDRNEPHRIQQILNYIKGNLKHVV

HDAC 11 = target: T3, HDAC 11 (Homo sapiens, UniProt Q96DB2)
T3 sequence (Q96DB2 1-347): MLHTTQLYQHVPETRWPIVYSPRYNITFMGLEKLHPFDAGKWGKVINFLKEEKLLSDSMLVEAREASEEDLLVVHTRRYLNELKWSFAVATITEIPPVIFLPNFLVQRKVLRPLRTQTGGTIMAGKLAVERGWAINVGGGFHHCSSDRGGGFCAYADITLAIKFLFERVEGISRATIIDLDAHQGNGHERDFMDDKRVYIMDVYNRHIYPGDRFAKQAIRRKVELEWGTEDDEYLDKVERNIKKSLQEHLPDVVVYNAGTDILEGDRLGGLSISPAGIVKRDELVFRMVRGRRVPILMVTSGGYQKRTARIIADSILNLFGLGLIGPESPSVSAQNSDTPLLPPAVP

Sequence of HDAC 3 (O15379 whole entry): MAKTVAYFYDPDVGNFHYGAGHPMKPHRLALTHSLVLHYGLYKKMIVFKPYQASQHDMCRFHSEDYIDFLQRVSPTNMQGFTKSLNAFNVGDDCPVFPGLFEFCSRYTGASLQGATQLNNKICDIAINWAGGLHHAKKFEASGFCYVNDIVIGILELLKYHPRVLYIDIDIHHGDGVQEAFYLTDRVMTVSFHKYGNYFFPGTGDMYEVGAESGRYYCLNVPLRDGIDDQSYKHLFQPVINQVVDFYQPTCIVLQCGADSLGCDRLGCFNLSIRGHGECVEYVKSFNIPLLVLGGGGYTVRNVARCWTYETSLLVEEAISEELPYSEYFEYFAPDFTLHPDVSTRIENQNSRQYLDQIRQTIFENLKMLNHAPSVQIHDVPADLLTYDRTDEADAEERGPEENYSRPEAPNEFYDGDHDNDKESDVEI
Sequence of HDAC 3 (Q9Y618 395-489 partner limits assumed): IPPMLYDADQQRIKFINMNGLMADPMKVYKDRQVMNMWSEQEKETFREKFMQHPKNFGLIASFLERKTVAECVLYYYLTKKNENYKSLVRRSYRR

Compound: Nc1cc(F)ccc1NC(=O)c1ccc(CNC(=O)/C=C/c2cccnc2)cc1 [HBI-8000, N-(2-amino-4-fluorophenyl)-4-[[[(2E)-1-oxo-3-(3-pyridinyl)-2-propen-1-yl]amino]methyl]benzamide]
- inhibition of HDAC 3 (HDAC 3): low nanomolar concentrations
- activity at HDAC 3 compared with Entinostat (HDAC 3; versus Entinostat): more active than Entinostat
- inhibition of HDAC 10 (HDAC 10): low nanomolar concentrations
- activity at HDAC 10 compared with Entinostat (HDAC 10; versus Entinostat): more active than Entinostat
- activity at HDAC 8 (HDAC 8): has activity
- activity at HDAC 8 compared with Entinostat (HDAC 8; versus Entinostat): more active than Entinostat
- activity at HDAC 11 (HDAC 11): has activity
- activity at HDAC 11 compared with Entinostat (HDAC 11; versus Entinostat): more active than Entinostat
